Assay results taken from PubChem BioAssay (NCI).
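A five-concentration, 48-hour dose response in 96-well plates underlies each endpoint, interpolated linearly between surrounding concentrations. Abbreviation: GI50, concentration required for 50% inhibition of growth. TGI: concentration producing complete growth inhibition.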

Key:
Test in all cases: NCI-60 cell line screen, 48 h
UO-31 renal = tested on: UO-31 renal
SF-295 CNS = tested on: SF-295 CNS
SW-620 colon = tested on: SW-620 colon
ACHN renal = tested on: ACHN renal
MCF7 breast = tested on: MCF7 breast
SN12C renal = tested on: SN12C renal
NCI-H522 lung = tested on: NCI-H522 lung
HOP-62 NSCLC = tested on: HOP-62 NSCLC
LOX IMVI melanoma = tested on: LOX IMVI melanoma
OVCAR-5 ovarian = tested on: OVCAR-5 ovarian
NCI-H23 lung = tested on: NCI-H23 lung
OVCAR-8 ovarian = tested on: OVCAR-8 ovarian
NCI/ADR-RES ovarian = tested on: NCI/ADR-RES ovarian
HCC-2998 colon = tested on: HCC-2998 colon
SNB-75 CNS = tested on: SNB-75 CNS
SF-268 CNS = tested on: SF-268 CNS
K-562 leukemia = tested on: K-562 leukemia
CCRF-CEM leukemia = tested on: CCRF-CEM leukemia
MOLT-4 leukemia = tested on: MOLT-4 leukemia
KM12 colon = tested on: KM12 colon
SK-OV-3 ovarian = tested on: SK-OV-3 ovarian
M14 melanoma = tested on: M14 melanoma
PC-3 prostate = tested on: PC-3 prostate
SNB-19 CNS = tested on: SNB-19 CNS
UACC-257 melanoma = tested on: UACC-257 melanoma
MDA-MB-231 breast = tested on: MDA-MB-231 breast
HL-60(TB) leukemia = tested on: HL-60(TB) leukemia
MALME-3M melanoma = tested on: MALME-3M melanoma
SR leukemia = tested on: SR leukemia
786-0 renal = tested on: 786-0 renal
RXF 393 renal = tested on: RXF 393 renal
OVCAR-3 ovarian = tested on: OVCAR-3 ovarian
NCI-H226 lung = tested on: NCI-H226 lung
RPMI-8226 leukemia = tested on: RPMI-8226 leukemia
U251 CNS = tested on: U251 CNS
CAKI-1 renal = tested on: CAKI-1 renal
IGROV1 ovarian = tested on: IGROV1 ovarian
A549 NSCLC = tested on: A549 NSCLC
T-47D breast = tested on: T-47D breast
SK-MEL-28 melanoma = tested on: SK-MEL-28 melanoma
UACC-62 melanoma = tested on: UACC-62 melanoma
HT29 colon = tested on: HT29 colon
DU-145 prostate = tested on: DU-145 prostate
A498 renal = tested on: A498 renal
SK-MEL-2 melanoma = tested on: SK-MEL-2 melanoma
BT-549 breast = tested on: BT-549 breast
HS 578T breast = tested on: HS 578T breast
SK-MEL-5 melanoma = tested on: SK-MEL-5 melanoma
HOP-92 NSCLC = tested on: HOP-92 NSCLC
NCI-H460 lung = tested on: NCI-H460 lung
TK-10 renal = tested on: TK-10 renal
OVCAR-4 ovarian = tested on: OVCAR-4 ovarian
COLO 205 colon = tested on: COLO 205 colon
HCT-116 colon = tested on: HCT-116 colon
HCT-15 colon = tested on: HCT-15 colon
SF-539 CNS = tested on: SF-539 CNS
MDA-MB-435 = tested on: MDA-MB-435

## CCOC(=O)Nc1nc2c(F)c(F)c(F)cc2s1
UO-31 renal
  GI50: > 100 µM
  TGI: > 100 µM
SF-295 CNS
  GI50: 38.8 µM
  TGI: > 100 µM
SW-620 colon
  GI50: > 100 µM
  TGI: > 100 µM
ACHN renal
  GI50: > 100 µM
  TGI: > 100 µM
MCF7 breast
  GI50: > 100 µM
  TGI: > 100 µM
SN12C renal
  GI50: > 100 µM
  TGI: > 100 µM
NCI-H522 lung
  GI50: 36.9 µM
  TGI: > 100 µM
HOP-62 NSCLC
  GI50: 33.9 µM
  TGI: > 100 µM
LOX IMVI melanoma
  GI50: > 100 µM
  TGI: > 100 µM
OVCAR-5 ovarian
  GI50: > 100 µM
  TGI: > 100 µM
NCI-H23 lung
  GI50: 89 µM
  TGI: > 100 µM
OVCAR-8 ovarian
  GI50: 48.1 µM
  TGI: > 100 µM
NCI/ADR-RES ovarian
  GI50: > 100 µM
  TGI: > 100 µM
HCC-2998 colon
  GI50: > 100 µM
  TGI: > 100 µM
SNB-75 CNS
  GI50: 23.4 µM
  TGI: 94.4 µM
SF-268 CNS
  GI50: 43.8 µM
  TGI: > 100 µM
K-562 leukemia
  GI50: > 100 µM
  TGI: > 100 µM
CCRF-CEM leukemia
  GI50: > 100 µM
  TGI: > 100 µM
MOLT-4 leukemia
  GI50: > 100 µM
  TGI: > 100 µM
KM12 colon
  GI50: > 100 µM
  TGI: > 100 µM
SK-OV-3 ovarian
  GI50: 45.2 µM
  TGI: > 100 µM
M14 melanoma
  GI50: > 100 µM
  TGI: > 100 µM
PC-3 prostate
  GI50: > 100 µM
  TGI: > 100 µM
SNB-19 CNS
  GI50: > 100 µM
  TGI: > 100 µM
UACC-257 melanoma
  GI50: > 100 µM
  TGI: > 100 µM
MDA-MB-231 breast
  GI50: 36.2 µM
  TGI: > 100 µM
HL-60(TB) leukemia
  GI50: > 100 µM
  TGI: > 100 µM
MALME-3M melanoma
  GI50: > 100 µM
  TGI: > 100 µM
SR leukemia
  GI50: > 100 µM
  TGI: > 100 µM
786-0 renal
  GI50: 84.3 µM
  TGI: > 100 µM
RXF 393 renal
  GI50: 29.6 µM
  TGI: > 100 µM
OVCAR-3 ovarian
  GI50: 75.1 µM
  TGI: > 100 µM
NCI-H226 lung
  GI50: 46 µM
  TGI: > 100 µM
RPMI-8226 leukemia
  GI50: > 100 µM
  TGI: > 100 µM
U251 CNS
  GI50: 36.7 µM
  TGI: > 100 µM
CAKI-1 renal
  GI50: > 100 µM
  TGI: > 100 µM
IGROV1 ovarian
  GI50: > 100 µM
  TGI: > 100 µM
A549 NSCLC
  GI50: > 100 µM
  TGI: > 100 µM
T-47D breast
  GI50: 61.8 µM
  TGI: > 100 µM
SK-MEL-28 melanoma
  GI50: > 100 µM
  TGI: > 100 µM
UACC-62 melanoma
  GI50: 19.7 µM
  TGI: > 100 µM
HT29 colon
  GI50: > 100 µM
  TGI: > 100 µM
DU-145 prostate
  GI50: 75.1 µM
  TGI: > 100 µM
A498 renal
  GI50: 31.8 µM
  TGI: > 100 µM
SK-MEL-2 melanoma
  GI50: 53.1 µM
  TGI: > 100 µM
BT-549 breast
  GI50: 58.3 µM
  TGI: > 100 µM
HS 578T breast
  GI50: 27.4 µM
  TGI: > 100 µM
SK-MEL-5 melanoma
  GI50: > 100 µM
  TGI: > 100 µM
HOP-92 NSCLC
  GI50: 15.4 µM
  TGI: 97.5 µM
NCI-H460 lung
  GI50: 71.9 µM
  TGI: > 100 µM
TK-10 renal
  GI50: > 100 µM
  TGI: > 100 µM
OVCAR-4 ovarian
  GI50: 37.5 µM
  TGI: > 100 µM
COLO 205 colon
  GI50: > 100 µM
  TGI: > 100 µM
HCT-116 colon
  GI50: 58.6 µM
  TGI: > 100 µM
HCT-15 colon
  GI50: > 100 µM
  TGI: > 100 µM
SF-539 CNS
  GI50: 28.7 µM
  TGI: 98.2 µM
MDA-MB-435
  GI50: > 100 µM
  TGI: > 100 µM
